Patent US10258603B2 (priority 2014, dated 2019)

These compounds were tested against T1, CECR2 (Homo sapiens, UniProt Q9BXF3) (assay: CECR2 TR-FRET Binding Assay). Details: IC50 (uM).
T1 construct: 424-538 was cloned, expressed, and purified to homogeneity; Flag; made in house
Description: IC50 Measurements for Inhibitors Using CECR2 TR-FRET Binding Assay

T1 sequence (Q9BXF3 424-538 limits assumed): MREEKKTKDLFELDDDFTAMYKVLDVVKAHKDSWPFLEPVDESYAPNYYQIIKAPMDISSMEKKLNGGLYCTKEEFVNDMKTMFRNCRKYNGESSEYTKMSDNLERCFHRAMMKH

| IC50 [µM] | Compound |
| --- | --- |
| 0.77 | CC(C)N1CCC(N(C)C(=O)c2cn(C)c(=O)c3[nH]ccc23)CC1 [Example 41, N-(1-isopropyl-4-piperidyl)-N,6-dimethyl-7-oxo-1H-pyrrolo[2,3-c]pyridine-4-carboxamide] |

Same assay, conditions: read-out: IC50

| IC50 [µM] | Compound |
| --- | --- |
| 2.3 | CC(C)N1CC[C@@H](NC(=O)c2cn(C)c(=O)c3[nH]ccc23)[C@H](C)C1 (relative stereo) [Example 239] |
| 4.9 | C=CCn1cc(C(=O)N2CCN(c3ccc(F)cc3)CC2C(N)=O)c2cc(C)[nH]c2c1=O (single isomer, unassigned) [Example 273, 1-(6-allyl-2-methyl-7-oxo-6,7-dihydro-1H-pyrrolo[2,3-c]pyridine-4-carbonyl)-4-(4-fluorophenyl)piperazine-2-carboxamide] |
| 0.074 | C=CCn1cc(C(=O)N2CCN(c3ccc(F)cc3)CC2C(N)=O)c2cc(C)[nH]c2c1=O (single isomer, unassigned) [Example 274, 1-(6-allyl-2-methyl-7-oxo-6,7-dihydro-1H-pyrrolo[2,3-c]pyridine-4-carbonyl)-4-(4-fluorophenyl)piperazine-2-carboxamide] |
| 0.012 | C=CCn1cc(C(=O)N(C)C2CCC(C)(C)c3ccccc32)c2cc(C)[nH]c2c1=O (single isomer, unassigned) [Example 279] |
| 0.049 | C=CCn1cc(C(=O)N(C)C2CCC(C)(C)c3ccccc32)c2cc(C)[nH]c2c1=O (single isomer, unassigned) [Example 280] |
| 0.032 | C=CCn1cc(C(=O)N(C)C2CCCc3cc(OC)ccc32)c2cc(C)[nH]c2c1=O (single isomer, unassigned) [Example 281] |
| 0.067 | C=CCn1cc(C(=O)N(C)C2CCCc3cc(OC)ccc32)c2cc(C)[nH]c2c1=O (single isomer, unassigned) [Example 282] |
| 0.041 | C=CCn1cc(C(=O)N(C)C2CCCc3c(F)cccc32)c2cc(C)[nH]c2c1=O (single isomer, unassigned) [Example 286] |
| 0.084 | C=CCn1cc(C(=O)N(C)C2CCCc3ccc(C)cc32)c2cc(C)[nH]c2c1=O (single isomer, unassigned) [Example 287] |
| 0.041 | C=CCn1cc(C(=O)N(C)C2CCCc3c(OC)cccc32)c2cc(C)[nH]c2c1=O (single isomer, unassigned) [Example 288] |
| 0.045 | C=CCn1cc(C(=O)N(C)C2CCCc3c(OC)cccc32)c2cc(C)[nH]c2c1=O (single isomer, unassigned) [Example 289] |
| 0.05 | C=CCn1cc(C(=O)N(C)C2CCCc3ccncc32)c2cc(C)[nH]c2c1=O (single isomer, unassigned) [Example 290] |
| 0.14 | C=CCn1cc(C(=O)N(C)C2CCCc3ccncc32)c2cc(C)[nH]c2c1=O (single isomer, unassigned) [Example 291] |
| 14 | CC(CN(C)C)NC(=O)c1cn(C)c(=O)c2[nH]ccc12 (centres unmarked) [Example 2, N-[2-(dimethylamino)-1-methyl-ethyl]-6-methyl-7-oxo-1H-pyrrolo[2,3-c]pyridine-4-carboxamide] |
| 0.89 | CN(C)C1CCC(NC(=O)c2cn(C)c(=O)c3[nH]ccc23)CC1 (centres unmarked) [Example 21, N-[4-(dimethylamino)cyclohexyl]-6-methyl-7-oxo-1H-pyrrolo[2,3-c]pyridine-4-carboxamide] |
| 2.1 | CC(C)N1CCC(CN(C)C(=O)c2cn(C)c(=O)c3[nH]ccc23)C1 (centres unmarked) [Example 23, N-[(1-isopropylpyrrolidin-3-yl)methyl]-N,6-dimethyl-7-oxo-1H-pyrrolo[2,3-c]pyridine-4-carboxamide] |
| 3.2 | CC1CCN(CCNC(=O)c2cn(C)c(=O)c3[nH]ccc23)CC1 [Example 26, 6-methyl-N-[2-(4-methyl-1-piperidyl)ethyl]-7-oxo-1H-pyrrolo[2,3-c]pyridine-4-carboxamide] |
| 1.8 | CC1CCCCN1CCCNC(=O)c1cn(C)c(=O)c2[nH]ccc12 (centres unmarked) [Example 29, 6-methyl-N-[3-(2-methyl-1-piperidyl)propyl]-7-oxo-1H-pyrrolo[2,3-c]pyridine-4-carboxamide] |
| 3.8 | Cn1cc(C(=O)NCCN2CCC(O)CC2)c2cc[nH]c2c1=O [Example 30, N-[2-(4-hydroxy-1-piperidyl)ethyl]-6-methyl-7-oxo-1H-pyrrolo[2,3-c]pyridine-4-carboxamide] |
| 3.1 | Cn1cc(C(=O)NCCN2CCS(=O)(=O)CC2)c2cc[nH]c2c1=O [Example 37, N-[2-(1,1-dioxo-1,4-thiazinan-4-yl)ethyl]-6-methyl-7-oxo-1H-pyrrolo[2,3-c]pyridine-4-carboxamide] |
| 0.89 | Cn1cc(C(=O)N2CCC(N3CCCCC3)CC2)c2cc[nH]c2c1=O [Example 59, 6-methyl-4-[4-(1-piperidyl)piperidine-1-carbonyl]-1H-pyrrolo[2,3-c]pyridin-7-one] |
| 10.3 | CN(C)C1CCN(C(=O)c2cn(C)c(=O)c3[nH]ccc23)C1 (centres unmarked) [Example 60, 4-[3-(dimethylamino)pyrrolidine-1-carbonyl]-6-methyl-1H-pyrrolo[2,3-c]pyridin-7-one] |

| IC50 [µM] | Compound |
| --- | --- |
| 1 | CN1CCN(C2CCN(C(=O)c3cn(C)c(=O)c4[nH]ccc34)CC2)CC1 [Example 61, 6-methyl-4-[4-(4-methylpiperazin-1-yl)piperidine-1-carbonyl]-1H-pyrrolo[2,3-c]pyridin-7-one] |
| 1.5 | CC1CCN(C2CCN(C(=O)c3cn(C)c(=O)c4[nH]ccc34)CC2)CC1 [Example 62, 6-methyl-4-[4-(4-methyl-1-piperidyl)piperidine-1-carbonyl]-1H-pyrrolo[2,3-c]pyridin-7-one] |
| 1.4 | CC1CCN(C(=O)c2cn(C)c(=O)c3[nH]ccc23)CC1 [Example 65, 6-methyl-4-(4-methylpiperidine-1-carbonyl)-1H-pyrrolo[2,3-c]pyridin-7-one] |
| 2.4 | COC1CCN(C(=O)c2cn(C)c(=O)c3[nH]ccc23)CC1 [Example 66, 4-(4-methoxypiperidine-1-carbonyl)-6-methyl-1H-pyrrolo[2,3-c]pyridin-7-one] |
| 1.8 | CC1CCCN(C2CCN(C(=O)c3cn(C)c(=O)c4[nH]ccc34)CC2)C1 (centres unmarked) [Example 67, 6-methyl-4-[4-(3-methyl-1-piperidyl)piperidine-1-carbonyl]-1H-pyrrolo[2,3-c]pyridin-7-one] |
| 3 | Cn1cc(C(=O)N2CCC(C(C)(C)O)CC2)c2cc[nH]c2c1=O [Example 68, 4-[4-(1-hydroxy-1-methyl-ethyl)piperidine-1-carbonyl]-6-methyl-1H-pyrrolo[2,3-c]pyridin-7-one] |
| 0.45 | Cn1cc(C(=O)N2CCC(Cc3ccc(F)cc3)CC2)c2cc[nH]c2c1=O [Example 69, 4-[4-[(4-fluorophenyl)methyl]piperidine-1-carbonyl]-6-methyl-1H-pyrrolo[2,3-c]pyridin-7-one] |
| 2.2 | COCC1CCN(C(=O)c2cn(C)c(=O)c3[nH]ccc23)CC1 [Example 72, 4-[4-(methoxymethyl)piperidine-1-carbonyl]-6-methyl-1H-pyrrolo[2,3-c]pyridin-7-one] |
| 2.5 | Cn1cc(C(=O)N2CCC3(CC2)COC3)c2cc[nH]c2c1=O [Example 73, 6-methyl-4-(2-oxa-7-azaspiro[3.5]nonane-7-carbonyl)-1H-pyrrolo[2,3-c]pyridin-7-one] |
| 5.9 | CN(C)C(=O)C1CCN(C(=O)c2cn(C)c(=O)c3[nH]ccc23)CC1 [Example 74, N,N-dimethyl-1-(6-methyl-7-oxo-1H-pyrrolo[2,3-c]pyridine-4-carbonyl)piperidine-4-carboxamide] |
| 4.8 | Cn1cc(C(=O)N2CCC(CO)CC2)c2cc[nH]c2c1=O [Example 75, 4-[4-(hydroxymethyl)piperidine-1-carbonyl]-6-methyl-1H-pyrrolo[2,3-c]pyridin-7-one] |
| 0.35 | Cn1cc(C(=O)N2CCC(CCc3ccncc3)CC2)c2cc[nH]c2c1=O [Example 76, 6-methyl-4-[4-[2-(4-pyridyl)ethyl]piperidine-1-carbonyl]-1H-pyrrolo[2,3-c]pyridin-7-one] |
| 2.7 | Cn1cc(C(=O)N2CCC(N3CCCC3)CC2)c2cc[nH]c2c1=O [Example 77, 6-methyl-4-(4-pyrrolidin-1-ylpiperidine-1-carbonyl)-1H-pyrrolo[2,3-c]pyridin-7-one] |
| 9.9 | CC1CN(C(=O)c2cn(C)c(=O)c3[nH]ccc23)CCC1N(C)C (centres unmarked) [Example 78, 4-[4-(dimethylamino)-3-methyl-piperidine-1-carbonyl]-6-methyl-1H-pyrrolo[2,3-c]pyridin-7-one] |
| 5.1 | CCN(CC)C1CCN(C(=O)c2cn(C)c(=O)c3[nH]ccc23)CC1 [Example 79, 4-[4-(diethylamino)piperidine-1-carbonyl]-6-methyl-1H-pyrrolo[2,3-c]pyridin-7-one] |
| 0.51 | Cc1cccc(NC(=O)c2cn(C)c(=O)c3[nH]ccc23)c1 [Example 80, 6-methyl-N-(m-tolyl)-7-oxo-1H-pyrrolo[2,3-c]pyridine-4-carboxamide] |
| 0.31 | Cn1cc(C(=O)Nc2cccc(CN3CCOCC3)c2)c2cc[nH]c2c1=O [Example 113] |
| 0.24 | CN(C(=O)c1cn(C)c(=O)c2[nH]ccc12)C1CCN(c2ccncn2)CC1 [Example 139, N,6-dimethyl-7-oxo-N-(1-pyrimidin-4-yl-4-piperidyl)-1H-pyrrolo[2,3-c]pyridine-4-carboxamide] |
| 0.34 | Cc1cnc(N2CCC(N(C)C(=O)c3cn(C)c(=O)c4[nH]ccc34)CC2)nc1 [Example 140, N,6-dimethyl-N-[1-(5-methylpyrimidin-2-yl)-4-piperidyl]-7-oxo-1H-pyrrolo[2,3-c]pyridine-4-carboxamide] |
| 0.39 | CN(C(=O)c1cn(C)c(=O)c2[nH]ccc12)C1CCN(c2ncc(C#N)cn2)CC1 [Example 141, N-[1-(5-cyanopyrimidin-2-yl)-4-piperidyl]-N,6-dimethyl-7-oxo-1H-pyrrolo[2,3-c]pyridine-4-carboxamide] |
| 0.29 | CN(C(=O)c1cn(C)c(=O)c2[nH]ccc12)C1CCN(c2nccc(C(F)(F)F)n2)CC1 [Example 142, N,6-dimethyl-7-oxo-N-[1-[4-(trifluoromethyl)pyrimidin-2-yl]-4-piperidyl]-1H-pyrrolo[2,3-c]pyridine-4-carboxamide] |
